Patent publication US11369618B2, “Compounds, compositions and methods for prevention and/or treatment of cancer” (THE TRUSTEES OF THE UNIVERSITY OF PENNSYLVANIA, priority 2016, dated 2022)

How the values were obtained:
[1] = tested on: tumor infiltrating immune cells; assay: immune profiling of tumors in YUMM 1.7 melanoma bearing mice; format: in vivo, mouse
Excerpt: FIGS. 15A-15C illustrate the finding that G-1 treatment in vivo alters tumor infiltrating immune cells. […] FIG. 15B: Heatmap summarizing immune profiling across biological replicates, n=5 per group, * denotes significance by two-way ANOVA assuming each immune population is an independent measurement of immune activation. FIG. 15C: Quantification of individual immune populations from FIG. 15B, n=5 per group.

PDAC cell lines = assay: proliferation assay of PDAC cell lines treated with G-1; format: cell-based; conditions: 500 nM over 5 days
NSCLC line LLC1 = assay: proliferation assay of LLC1 treated with G-1; format: cell-based; conditions: LLC1, 500 nM, 6 days
Method: (§1) FIGS. 18A-18G illustrate the finding that GPER signaling reduces NSCLC cell proliferation in vitro and in vivo and has combinatorial effects with αPD-1 immunotherapy. FIG. 18A: Western blot for pCREB of LLC1 cells treated with 500 nM G-1 for 30 minutes. FIG. 18B: Proliferation assay of LLC1 treated with 500 nM G-1 for 6 days. FIG. 18C: Western blot for c-Myc of LLC1 cells treated with 500 nM G-1 for 6 days. FIG. 18D: Western blot for c-Myc of LLC1 cells treated with 500 nM G-1 over a time-course. […] FIG. 18F: Tumor volumes over time of LLC1 tumor bearing mice treated with vehicle or G-1, as well as αPD-1 antibody or isotype antibody control (2A3). FIG. 18G: Survival curve of mice treated with vehicle or G-1, as well as αPD-1 antibody or isotype antibody control (2A3).

LLC1 tumors = assay: LLC1 tumor bearing mice treated with subcutaneous G-1, αPD-1 antibody, or both; format: in vivo, mouse
Method: as §1
To test whether G-1 had activity in vivo and synergizes with PD-1 immunotherapy, LLC1 tumors were grown in mice that were treated with subcutaneous G-1, αPD-1 antibody, or both, and survival compared to matched mice treated with vehicle and isotype antibody controls.

[2] = tested on: Melanoma cells engineered to maintain c-Myc protein; assay: c-Myc-transduced WM46 melanoma cells treated with G-1; format: cell-based, human; conditions: c-Myc-transduced WM46, 16 hours
Method: FIG. 12 illustrates the finding that GPER signaling results in loss of c-Myc in melanoma. Panels A-C: Western blots of heMel (Panel A), WM46 (Panel B), and B16F10 (Panel C) melanoma transiently treated with E2 for 3 days, followed by 4 day withdraw. Panel D: Western blot of WM46 cells treated with a specific GPER agonist (G-1) for 16 hours. Panel E: Western blot of luciferase- or c-Myc-transduced WM46 cells treated with G-1 for 16 hours. Panel F: Western blot of WM46 cells treated with G-1 across a time course. Panel G: Western blot of WM46 cells treated with G-1, 100 μM PKA inhibitor Rp-8-Br-cAMPS (PKAi), or both for 1 hour. Panel H: Western blot of WM46 cells treated with G-1, […] proteasome inhibitor (MG132), or both for 1 hour. Panel I: Western blot of WM46 cells treated with 10 μg/ml cyclohexamide (CHX) with and without G-1.
Furthermore, GPER signaling induced a relative growth arrest, associated with hypophosphorylation of Rb in both mouse and human melanoma cells (FIG. 12, Panel D).

normal human melanocytes = assay: differentiation of normal human melanocytes after continuous or transient hormone exposure (melanin, RNAseq, Western blot); format: cell-based; conditions: normal human melanocytes, hormone or agonist exposure
Method: FIG. 11A: Long-term melanin assay in which normal human melanocytes were transiently treated with progesterone (P4), or estrogen (E2). Subsets of these groups (Red) were treated with an additional transient pulse of P4 at Day 27. Error bars equal the standard deviation of the samples. FIG. 11B: Western blot of melanocyte differentiation markers after a transient, 4-day treatment with either vehicle or estrogen, followed by an 8 day withdraw period. FIG. 11C: Experimental timeline of estrogen or GPER agonist (G-1) pre-treatment of mouse and human melanoma cells, n=5 per group. FIG. 11D: Relative tumor weights of mouse and human melanomas pre-treated with estrogen, * denotes significance by the Mann-Whitney test. FIG. 11E: Relative tumor weights of mouse and human melanomas pre-treated with G-1, * denotes significance by the Mann-Whitney test.
Normal human melanocytes received a pulse-treatment of estrogen—this consisted of 4 days of estrogen treatment followed by an 8 day withdraw.
To test whether pregnancy-associated hormones induce long-lasting changes in melanocyte differentiation that may affect their future susceptibility to transformation, primary human melanocytes were transiently exposed to estrogen or progesterone (FIGS. 11A-11E).
A subset of cells differentiated by transient exposure to estrogen was subsequently treated with progesterone.

[3] = tested on: c-Myc and pRB in syngeneic pancreatic ductal adenocarcinoma (PDAC) cell lines; assay: Western blot of PDAC cell lines treated with G-1; conditions: 500 nM, 1 hour
Method: FIG. 17A: Western blot of c-Myc in several PDAC cell lines treated with 500 nM G-1 for 1 hour.
Using a newly available set of syngeneic pancreatic ductal adenocarcinoma (PDAC) cell lines, the effects of GPER activation on the levels of c-Myc protein were examined.

B16F10 melanoma = assay: B16F10 melanoma-bearing syngeneic mice treated with subcutaneous G-1, αPD-1 antibody, or both; format: in vivo
Excerpt: FIGS. 14A-14F illustrate the finding that treatment of melanoma bearing mice with G-1 and αPD-1 immunotherapy dramatically extends survival. FIG. 14A: Experimental timeline of B16F10 bearing mice treated with vehicle or G-1, as well as αPD-1 antibody or isotype antibody control (2A3), n=10 per group. FIG. 14B: Tumor volumes of treatment groups at Day 14, * denotes significance One-way ANOVA with Tukey's multiple comparison test. FIG. 14C: Survival curve of mice treated with vehicle or G-1, as well as isotype antibody control (2A3) or αPD-1 antibody. FIG. 14D: Experimental outline of YUMM1.7 bearing mice treated with vehicle or G-1, as well as isotype antibody control (2A3) or αPD-1 antibody. Treatment was started at day 14 after tumors reached 4-5 mm in diameter. n=5 per group. FIG. 14E: Tumor volumes over time of treatment groups. FIG. 14F: Survival curve of mice treated with vehicle or G-1, as well as αPD-1 antibody or isotype antibody control (2A3).
To determine whether G-1 has therapeutic utility as a systemically delivered agent with or without immune checkpoint inhibitors, B16F10 melanoma-bearing syngeneic mice were treated with subcutaneous G-1, αPD-1 antibody, or both, and survival compared to matched mice treated with vehicle and isotype antibody controls (in particular, non-specific isotype control antibody 2A3) (FIG. 14A). Total tumor volume was assessed after 5-50 days.

[4] = tested on: murine B16F10 melanoma cells; assay: G-1-pretreated B16F10 cells injected into syngeneic C57BL/6 mice, then αPD-1 antibody or isotype control; format: in vivo, mouse; conditions: B16F10 cells pretreated in vitro
Excerpt: FIG. 13D: Experimental timeline of vehicle or G-1 pre-treatment of B16F10 cells followed by treatment with either αPD-1 antibody or isotype antibody control (2A3), n=5 per group. FIG. 13E: Tumor volumes of treatment groups at Day 14, * denotes significance One-way ANOVA with Tukey's multiple comparison test. FIG. 13F: Survival curve of mice with tumors pre-treated with vehicle or G-1, followed by isotype antibody control (2A3) or αPD-1 antibody.
To determine whether tumor cell intrinsic GPER signaling influences melanoma vulnerability to immune checkpoint therapy, studies were performed, based on the observation that GPER-driven differentiation is long lasting. G-1 was used to activate GPER and drive differentiation in murine B16F10 melanoma cells in vitro (FIG. 13D). Then, equal numbers of vehicle or G-1-treated tumor cells were injected into syngeneic C57BL/6 mice and the animals were treated with either αPD-1 antibody or isotype antibody control.

CC(=O)c1ccc2c(c1)[C@@H]1C=CC[C@@H]1[C@H](c1cc3c(cc1Br)OCO3)N2 (relative stereo) [Compound G-1, rel-1-[4-(6-bromo-1,3-benzodioxol-5-yl)-3aR,4S,5,9bS-tetrahydro-3H-cyclopenta[c]quinolin-8-yl]-ethanone]
tumor infiltrating immune cell subsets [1]: increased several immune cell subsets, including T cells and NK cells
proliferation rates (PDAC cell lines): inhibited
proliferation (NSCLC line LLC1): decreased proliferation
survival (LLC1 tumors): did not alter survival significantly
tumor growth (LLC1 tumors): slowed tumor growth initially
response of cells engineered to maintain c-Myc protein [2]: resistant
melanocyte differentiation state (melanin pigment production) (normal human melanocytes): increase the differentiation state of human melanocytes
c-Myc [3]: reduced
pRB [3]: reduced
tumor growth (B16F10 melanoma; B16F10-bearing mice): slowed tumor growth
survival (B16F10 melanoma; B16F10-bearing mice, subcutaneous G-1): extended survival to the same extent as αPD-1
tolerability (B16F10 melanoma; mice): well tolerated
subsequent tumor growth [4]: inhibited subsequent tumor growth
survival [4]: extended survival compared to controls
